SMILES strings stand for the structures.

For the first test, the target named is T1, mPGES-1 (Homo sapiens, UniProt O14684).
T1 construct: made in house; host or cells: E. coli
T1 sequence (O14684 1-152): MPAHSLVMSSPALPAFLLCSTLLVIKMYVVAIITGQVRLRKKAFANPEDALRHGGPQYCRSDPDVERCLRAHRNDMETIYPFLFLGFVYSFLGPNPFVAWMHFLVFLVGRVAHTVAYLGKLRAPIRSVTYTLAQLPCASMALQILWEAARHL
Kind of test: mPGES-1 assay: conversion of PGH2 to PGE2, PGE2 analysed by HPLC. As to conditions: biological test described above; 10 μM or below; read-out: concentration giving 50% inhibition of mPGES-1. The test is classed as biochemical. How it is done: In the assay mPGES-1 catalyses the reaction where the substrate PGH2 is converted to PGE2. mPGES-1 is expressed in E. coli and the membrane fraction is dissolved in 20 mM NaPi-buffer pH 8.0 and stored at −80° C. […] The stop solution consists of H2O/MeCN (7/3), containing FeCl2 (25 mM) and HCl (0.15 M). The assay is performed at room temperature in 96-well plates.
The following is added chronologically to each well: • 1. 100 μL mPGES-1 in KPi-buffer with glutathione. Total protein concentration: 0.02 mg/mL. • 2. 1 μL inhibitor in DMSO. Incubation of the plate at room temperature for 25 minutes. • 3. 4 μL of a 0.25 mM PGH2 solution. Incubation of the plate at room temperature for 60 seconds. • 4. 100 μL stop solution. • 180 μL per sample is analyzed with HPLC.
Consider `CC(C)c1ccc2oc(-c3cc(NC(=O)c4cccnc4)ccc3Cl)nc2c1` [N-[4-chloro-3-(5-isopropylbenzoxazol-2-yl)phenyl]nicotinamide], for which the IC50 was no more than 10 µM. Turning to `Cc1cc2nc(-c3cccc(NC(=O)c4cc(Cl)ccc4Cl)c3)oc2cc1C` [2,5-dichloro-N-[3-(5,6-dimethylbemoxazol-2-yl)phenyl]benzamide], the IC50 was no more than 10 µM.

`CC(C)c1ccc2oc(-c3cccc(NC(=O)c4cc(Cl)ccc4Cl)c3)nc2c1`: the IC50 was no more than 10 µM.

Consider `O=C(Nc1ccc(Cl)c(-c2nc3cc(Cl)ccc3o2)c1)c1ccccc1[N+](=O)[O-]` [N-[4-chloro-3-(5-chlorobenzoxazol-2-yl)phenyl]-2-nitrobenzamide], for which the IC50 is no more than 10 µM. With `CC(C)c1ccc2oc(-c3cc(NC(=O)c4ccccc4[N+](=O)[O-])ccc3Cl)nc2c1` [N-[4-chloro-3-(5-isopropylbenzoxazol-2-yl)phenyl]-2-nitrobenzamide], the IC50 is no more than 10 µM. Still for that read-out and setting: the same measure for `Cc1cc(C)c2oc(-c3ccc(C)c(NC(=O)c4ccc(Cl)cc4Cl)c3)nc2c1` [2,4-dichloro-N-[2-methyl-5-(5,7-dimethylbenzoxazol-2-yl)phenyl]benzamide]: no more than 10 µM; for `Cc1ccc2oc(-c3cccc(NC(=O)c4ccccc4Cl)c3)nc2c1` [2-chloro-N-[3-(5-methylbenzoxazol-2-yl)phenyl]benzamide]: no more than 10 µM; for `O=C(Nc1cccc(-c2nc3cc(Cl)cc(Cl)c3o2)c1)c1ccccc1Br` [2-bromo-N-[3-(5,7-dichlorobenzoxazol-2-yl)phenyl]benzamide]: no more than 10 µM. Same read-out and setting: the same measure for `O=C(Nc1ccc(Cl)c(-c2nc3cc(Cl)ccc3o2)c1)c1ccccc1Cl` [2-chloro-N-[4-chloro-3-(5-chlorobenzoxazol-2-yl)phenyl]benzamide]: no more than 10 µM. The same measure, in the same setting: under `O=C(Nc1ccc(Cl)c(-c2nc3cc(Cl)ccc3o2)c1)c1ccc([N+](=O)[O-])cc1Cl` [2-chloro-N-[4-chloro-3-(5-chlorobenzoxazol-2-yl)phenyl]-4-nitrobenzamide] stands no more than 10 µM; under `CC(C)c1ccc2oc(-c3cc(NC(=O)c4ccccc4Cl)ccc3Cl)nc2c1` [2-chloro-N-[4-chloro-3-(5-isopropylbenzoxazol-2yl)phenyl]benzamide], no more than 10 µM; under `COc1ccc(C(=O)Nc2ccc(Cl)c(-c3nc4cc(C(C)C)ccc4o3)c2)cc1[N+](=O)[O-]` [N-[4-chloro-3-(5-isopropylbenzoxazol-2-yl)phenyl]-4-methoxy-3-nitrobenzamide], no more than 10 µM.

The test is the same for the next values; noted with them: mPGES-1 expressed in E. coli; 25 min preincubation with inhibitor, 60 s with PGH2, room temperature; read-out: IC50.
Regarding `Cc1ccc2oc(-c3cccc(NC(=O)c4ccccc4[N+](=O)[O-])c3)nc2c1` [Example 3, N-[3-(5-Methylbenzoxazol-2-yl)phenyl]-2-nitrobenzamide], the IC50 stood at 1.9 µM.

On to `Cc1ccc2oc(-c3cc(NC(=O)c4ccccc4OC(F)(F)F)ccc3Cl)nc2c1` [Example 20, N-[4-Chloro-3-(5-methylbenzoxazol-2-yl)phenyl]-2-trifluoromethoxybenzamide], for which the IC50 is 2.3 µM. The same measure, in the same setting: under `Cc1ccc2oc(-c3cc(NC(=O)c4ccccc4F)ccc3Cl)nc2c1` [Example 23, N-[4-Chloro-3-(5-methylbenzoxazol-2-yl)phenyl]-2-fluorobenzamide] stands 2.6 µM.

The values above are taken from patent US20090258917A1 (priority 2005, published 2009).
